Test results from PubChem BioAssay (NCI).
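96-well plates; 48 h exposure; 5 concentrations. Endpoints by linear interpolation between flanking doses. Not reached: highest tested concentration assigned. GI50 = concentration required for 50% inhibition of growth. TGI is the concentration that stops growth completely.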

Assays:
Assay in all cases: NCI-60 cell line screen, 48 h
786-0 renal = test system: 786-0 renal
A498 renal = test system: A498 renal
A549 NSCLC = test system: A549 NSCLC
ACHN renal = test system: ACHN renal
CAKI-1 renal = test system: CAKI-1 renal
CCRF-CEM leukemia = test system: CCRF-CEM leukemia
COLO 205 colon = test system: COLO 205 colon
DMS 114 small cell lung = test system: DMS 114 small cell lung
DMS 273 small cell lung = test system: DMS 273 small cell lung
EKVX NSCLC = test system: EKVX NSCLC
HCC-2998 colon = test system: HCC-2998 colon
HCT-116 colon = test system: HCT-116 colon
HCT-15 colon = test system: HCT-15 colon
HL-60(TB) leukemia = test system: HL-60(TB) leukemia
HOP-62 NSCLC = test system: HOP-62 NSCLC
HOP-92 NSCLC = test system: HOP-92 NSCLC
HT29 colon = test system: HT29 colon
IGROV1 ovarian = test system: IGROV1 ovarian
K-562 leukemia = test system: K-562 leukemia
KM12 colon = test system: KM12 colon
KM20L2 colon = test system: KM20L2 colon
LOX IMVI melanoma = test system: LOX IMVI melanoma
M14 melanoma = test system: M14 melanoma
M19-MEL melanoma = test system: M19-MEL melanoma
MALME-3M melanoma = test system: MALME-3M melanoma
MOLT-4 leukemia = test system: MOLT-4 leukemia
NCI-H226 lung = test system: NCI-H226 lung
NCI-H23 lung = test system: NCI-H23 lung
NCI-H460 lung = test system: NCI-H460 lung
NCI-H522 lung = test system: NCI-H522 lung
OVCAR-3 ovarian = test system: OVCAR-3 ovarian
OVCAR-4 ovarian = test system: OVCAR-4 ovarian
OVCAR-5 ovarian = test system: OVCAR-5 ovarian
OVCAR-8 ovarian = test system: OVCAR-8 ovarian
RPMI-8226 leukemia = test system: RPMI-8226 leukemia
RXF 393 renal = test system: RXF 393 renal
SF-268 CNS = test system: SF-268 CNS
SF-295 CNS = test system: SF-295 CNS
SF-539 CNS = test system: SF-539 CNS
SK-MEL-2 melanoma = test system: SK-MEL-2 melanoma
SK-MEL-28 melanoma = test system: SK-MEL-28 melanoma
SK-MEL-5 melanoma = test system: SK-MEL-5 melanoma
SK-OV-3 ovarian = test system: SK-OV-3 ovarian
SN12C renal = test system: SN12C renal
SNB-19 CNS = test system: SNB-19 CNS
SNB-75 CNS = test system: SNB-75 CNS
SNB-78 CNS = test system: SNB-78 CNS
SR leukemia = test system: SR leukemia
SW-620 colon = test system: SW-620 colon
TK-10 renal = test system: TK-10 renal
U251 CNS = test system: U251 CNS
UACC-257 melanoma = test system: UACC-257 melanoma
UACC-62 melanoma = test system: UACC-62 melanoma
UO-31 renal = test system: UO-31 renal
DLD-1 colon = test system: DLD-1 colon
LXFL 529 NSCLC = test system: LXFL 529 NSCLC

C=CCCCC(C#N)(c1ccccc1)N1CCCC1 (configuration not stated)
TGI (786-0 renal): > 100 µM | TGI (A498 renal): > 100 µM | TGI (A549 NSCLC): > 100 µM | TGI (ACHN renal): > 100 µM | TGI (CAKI-1 renal): > 100 µM | TGI (CCRF-CEM leukemia): > 100 µM | TGI (COLO 205 colon): > 100 µM | TGI (DMS 114 small cell lung): > 100 µM | TGI (DMS 273 small cell lung): > 100 µM | TGI (EKVX NSCLC): > 100 µM | TGI (HCC-2998 colon): > 100 µM | TGI (HCT-116 colon): > 100 µM | TGI (HCT-15 colon): > 100 µM | TGI (HL-60(TB) leukemia): > 100 µM | TGI (HOP-62 NSCLC): > 100 µM | TGI (HOP-92 NSCLC): > 100 µM | TGI (HT29 colon): > 100 µM | TGI (IGROV1 ovarian): > 100 µM | TGI (K-562 leukemia): > 100 µM | TGI (KM12 colon): > 100 µM | TGI (KM20L2 colon): > 100 µM | TGI (LOX IMVI melanoma): > 100 µM | TGI (M14 melanoma): > 100 µM | TGI (M19-MEL melanoma): > 100 µM | TGI (MALME-3M melanoma): > 100 µM | TGI (MOLT-4 leukemia): > 100 µM | TGI (NCI-H226 lung): > 100 µM | TGI (NCI-H23 lung): > 100 µM | TGI (NCI-H460 lung): > 100 µM | TGI (NCI-H522 lung): > 100 µM | TGI (OVCAR-3 ovarian): > 100 µM | TGI (OVCAR-4 ovarian): > 100 µM | TGI (OVCAR-5 ovarian): > 100 µM | TGI (OVCAR-8 ovarian): > 100 µM | TGI (RPMI-8226 leukemia): > 100 µM | TGI (RXF 393 renal): > 100 µM | TGI (SF-268 CNS): > 100 µM | TGI (SF-295 CNS): > 100 µM | TGI (SF-539 CNS): > 100 µM | TGI (SK-MEL-2 melanoma): > 100 µM | TGI (SK-MEL-28 melanoma): > 100 µM | TGI (SK-MEL-5 melanoma): > 100 µM | TGI (SK-OV-3 ovarian): > 100 µM | TGI (SN12C renal): > 100 µM | TGI (SNB-19 CNS): > 100 µM | TGI (SNB-75 CNS): > 100 µM | TGI (SNB-78 CNS): > 100 µM | TGI (SR leukemia): > 100 µM | TGI (SW-620 colon): > 100 µM | TGI (TK-10 renal): > 100 µM | TGI (U251 CNS): > 100 µM | TGI (UACC-257 melanoma): > 100 µM | TGI (UACC-62 melanoma): > 100 µM | TGI (UO-31 renal): > 100 µM

[Co+2].[O-]c1ccccc1C=NCc1ccccc1.[O-]c1ccccc1C=NCc1ccccc1
GI50 (786-0 renal): 34.7 µM | TGI (786-0 renal): > 100 µM | GI50 (A498 renal): > 100 µM | TGI (A498 renal): > 100 µM | GI50 (A549 NSCLC): > 100 µM | TGI (A549 NSCLC): > 100 µM | GI50 (ACHN renal): 31.8 µM | TGI (ACHN renal): > 100 µM | GI50 (CCRF-CEM leukemia): 6.92 µM | TGI (CCRF-CEM leukemia): > 100 µM | GI50 (COLO 205 colon): 91.5 µM | TGI (COLO 205 colon): > 100 µM | GI50 (DLD-1 colon): 38.8 µM | TGI (DLD-1 colon): > 100 µM | GI50 (DMS 114 small cell lung): 28.7 µM | TGI (DMS 114 small cell lung): > 100 µM | GI50 (DMS 273 small cell lung): 95.8 µM | TGI (DMS 273 small cell lung): > 100 µM | GI50 (EKVX NSCLC): 56.6 µM | TGI (EKVX NSCLC): > 100 µM | GI50 (HCT-116 colon): 10.6 µM | TGI (HCT-116 colon): > 100 µM | GI50 (HCT-15 colon): 26.3 µM | TGI (HCT-15 colon): > 100 µM | GI50 (HL-60(TB) leukemia): 7.85 µM | TGI (HL-60(TB) leukemia): 82.1 µM | GI50 (HOP-92 NSCLC): 11.1 µM | TGI (HOP-92 NSCLC): 92.4 µM | GI50 (HT29 colon): 82.6 µM | TGI (HT29 colon): > 100 µM | GI50 (IGROV1 ovarian): 64.6 µM | TGI (IGROV1 ovarian): > 100 µM | GI50 (K-562 leukemia): 32.8 µM | TGI (K-562 leukemia): > 100 µM | GI50 (KM12 colon): 67.8 µM | TGI (KM12 colon): > 100 µM | GI50 (KM20L2 colon): > 100 µM | TGI (KM20L2 colon): > 100 µM | GI50 (LOX IMVI melanoma): 77.2 µM | TGI (LOX IMVI melanoma): > 100 µM | GI50 (LXFL 529 NSCLC): 17.2 µM | TGI (LXFL 529 NSCLC): > 100 µM | GI50 (M14 melanoma): 28.3 µM | TGI (M14 melanoma): > 100 µM | GI50 (M19-MEL melanoma): 39.8 µM | TGI (M19-MEL melanoma): > 100 µM | GI50 (MALME-3M melanoma): 21.1 µM | TGI (MALME-3M melanoma): > 100 µM | GI50 (MOLT-4 leukemia): 6.37 µM | TGI (MOLT-4 leukemia): > 100 µM | GI50 (NCI-H23 lung): 51.1 µM | TGI (NCI-H23 lung): > 100 µM | GI50 (NCI-H460 lung): > 100 µM | TGI (NCI-H460 lung): > 100 µM | GI50 (NCI-H522 lung): 45.7 µM | TGI (NCI-H522 lung): > 100 µM | GI50 (OVCAR-3 ovarian): 8.06 µM | TGI (OVCAR-3 ovarian): > 100 µM | GI50 (OVCAR-4 ovarian): 53.8 µM | TGI (OVCAR-4 ovarian): > 100 µM | GI50 (OVCAR-5 ovarian): 62.7 µM | TGI (OVCAR-5 ovarian): > 100 µM | GI50 (OVCAR-8 ovarian): 99.2 µM | TGI (OVCAR-8 ovarian): > 100 µM | GI50 (RPMI-8226 leukemia): 31.6 µM | TGI (RPMI-8226 leukemia): > 100 µM | GI50 (SF-268 CNS): 11.6 µM | TGI (SF-268 CNS): > 100 µM | GI50 (SF-539 CNS): 16.3 µM | TGI (SF-539 CNS): > 100 µM | GI50 (SK-MEL-2 melanoma): 55.7 µM | TGI (SK-MEL-2 melanoma): > 100 µM | GI50 (SK-MEL-28 melanoma): 6.9 µM | TGI (SK-MEL-28 melanoma): > 100 µM | GI50 (SK-MEL-5 melanoma): 33.7 µM | TGI (SK-MEL-5 melanoma): > 100 µM | GI50 (SK-OV-3 ovarian): > 100 µM | TGI (SK-OV-3 ovarian): > 100 µM | GI50 (SN12C renal): 80.1 µM | TGI (SN12C renal): > 100 µM | GI50 (SNB-19 CNS): 59.4 µM | TGI (SNB-19 CNS): > 100 µM | GI50 (SNB-75 CNS): 21.3 µM | TGI (SNB-75 CNS): 69.6 µM | GI50 (SNB-78 CNS): > 100 µM | TGI (SNB-78 CNS): > 100 µM | GI50 (SW-620 colon): 41.4 µM | TGI (SW-620 colon): > 100 µM | GI50 (TK-10 renal): > 100 µM | TGI (TK-10 renal): > 100 µM | GI50 (U251 CNS): 47.2 µM | TGI (U251 CNS): > 100 µM | GI50 (UACC-257 melanoma): 35.7 µM | TGI (UACC-257 melanoma): > 100 µM | GI50 (UACC-62 melanoma): 21.1 µM | TGI (UACC-62 melanoma): > 100 µM | GI50 (UO-31 renal): 17.1 µM | TGI (UO-31 renal): 82.9 µM
